Measurements: patent US20160151369A1, “SUBSTITUTED 3-PHENYLPROPYLAMINE DERIVATIVES FOR THE TREATMENT OF OPHTHALMIC DISEASES AND DISORDERS” (ACUCELA INC., priority 2013, published 2016)
Read-outs that look alike come from different tables or passages of the source.

Columns and labels:
[1] = test system: retinal isomerase activity (regeneration of 11-cis-retinal); assay: Comparative in vivo murine isomerase assay, dose response (compound A vs compound D); set-up: species or system BALB/c mice
Procedure: (§1) All test compounds were stored at room temperature, dessicated.
On the day prior to dose administration compound A and compound D were weighed into new empty glass vials. The compounds were dissolved in di-water at the concentration of 0.833 mg/mL compound A and 0.892 mg/mL compound D, serially diluted into various concentrations, and stored overnight at 4 OC.
56 Male BALB/c mice (Charles River Laboratories) were used for this study. The mice were approximately 8 weeks at the initiation of dosing with an average body weight of 24 grams.
The day prior to dose administration 56 BALB/c mice were placed into a dark room and dark adapted for a minimum of 12 hours prior to dose administration. The mice were maintained in the dark for the duration of the study.
Each animal was removed from its cage and dosed accordingly to the study design in Table 4 (see below). Each animal was administered 0.1 mL of the appropriate compound or vehicle via oral gavage using a 1 mL syringe fitted with a 23 gauge oral gavage needle. Two hours following dose administration, animals were removed from the dark and exposed to 5000 Lux white light for 10 minutes to photobleach their eyes.
Following the completion of the photobleach the animals were returned to the dark for 2 hours to allow for the regeneration of 11-cis-retinal in the eyes. Two hours after photobleaching each animal was euthanized with carbon dioxide followed by cervical dislocation, in the dark under red light. The light control group was euthanized immediately following photobleaching. Immediately following the cervical dislocation both eyes of each animal were removed and transferred into separate tubes, flash frozen in liquid nitrogen and stored in the dark at −80° C. until processing and analysis.
(§2) All sample processing procedures were performed in the dark under red light.
Extracted samples were analyzed using an Agilent 1100 HPLC system according to the procedure outlined in Table 6 (see below)
(§3) HPLC analysis of the eyes measures the peak area units of the 110 cis-Ral-Oxime_syn. Signal.
(§4) Data analysis % inhibition (drug vs. recovery control). % control (drug vs. light control), and One-way ANOVA (followed by Tukey's Multiple Comparison) were performed using peak area units and performed by Prism software. Data are represented as mean and standard deviation.

[2] = test system: isomerase (recovery of 11-cis-retinal after bleaching); assay: In vivo murine isomerase assay (Table 3); settings: Mus musculus, po, 4 h, mice, Dose 1 mg/kg
[3] = test system: regeneration of 11-cis-retinal (isomerase); assay: Single dose time course in the in vivo isomerase assay at 0.3 mg/kg (compound A vs compound D); settings: BALB/c mice, single oral dose 0.3 mg/kg; for inhibition at 0.3 mg/kg: Mus musculus, read-out: Percent Inhibition, 0.3 mg/kg, Avg. % Inhibition
Procedure: as §1
On the day prior to dose administration 3-amino-1-(3-((tetrahydro-2H-pyran-4-yl)methoxy)phenyl)propan-1-ol (compound A) and 3-amino-1-(3-((tetrahydro-2H-pyran- 2-yl)methoxy)phenyl)propan-1-ol (compound D) were weighed into new empty glass vials. The compounds were dissolved in di-water at the concentration of 0.068 mg/mL and stored overnight at 4° C.
52 Male BALB/c mice (Charles River Laboratories) were used for this study. The mice were approximately 8 weeks at the initiation of dosing with an average body weight of 23 grams.
The day prior to dose administration 52 BALB/c mice were placed into a dark room and dark adapted for a minimum of 12 hours prior to dose administration. The mice were maintained in the dark for the duration of the study.
Each animal was removed from its cage and dosed accordingly to the study design in Table 10 (see below). Each animal was administered 0.1 mL of the appropriate test article or vehicle orally using a 1 mL syringe fitted with a 23 gauge oral gavage needle. At 2, 4, 6, 8, 16 or 24 hours following dose administration, animals were removed from the dark and exposed to 5000 Lux white light for 10 minutes to photobleach their eyes. Following the completion of the photobleach the animals were returned to the dark for 2 hours to allow for the regeneration of 11-cis-retinal in the eyes. Two hours after photobleaching each animal was euthanized with carbon dioxide followed by cervical dislocation, in the dark under red light. The light control group was euthanized immediately following photobleaching. Immediately following the cervical dislocation both eyes of each animal were removed and transferred into separate tubes, flash frozen in liquid nitrogen and stored in the dark at −80° C. until processing and analysis.
as §2
Extracted samples were analyzed using an Agilent 1100 HPLC system according to the procedure outlined in Table 12 (see below)
as §3, §4

- dose at which 11-cis-retinal recovery was inhibited by 50% (called IC50) ([1]; BALB/c mice, single oral dose, 2 h, dose response experiment): 0.59 mg/kg
SMILES: NCCC(O)c1cccc(OCC2CCCCO2)c1 (centres unmarked) [compound D, reference compound]
- inhibition at 0.03 mg/kg ([1]; Mus musculus, po, 2 h, BALB/c mice, single oral dose 0.03 mg/kg, bleach 2 h after dose, drug vs. recovery control, read-out: Percent Inhibition at 2 Hours, Avg. % Inhibition): -5.3%
- inhibition at 0.1 mg/kg ([1]; Mus musculus, po, 2 h, BALB/c mice, single oral dose 0.1 mg/kg, bleach 2 h after dose, drug vs. recovery control, read-out: Percent Inhibition at 2 Hours, Avg. % Inhibition): -23.9%
- inhibition at 0.3 mg/kg ([1]; Mus musculus, po, 2 h, BALB/c mice, single oral dose 0.3 mg/kg, bleach 2 h after dose, drug vs. recovery control, read-out: Percent Inhibition at 2 Hours, Avg. % Inhibition): -2.1%
- inhibition at 0.5 mg/kg ([1]; Mus musculus, po, 2 h, BALB/c mice, single oral dose 0.5 mg/kg, bleach 2 h after dose, drug vs. recovery control, read-out: Percent Inhibition at 2 Hours, Avg. % Inhibition): 41.4%
- inhibition at 1 mg/kg ([1]; Mus musculus, po, 2 h, BALB/c mice, single oral dose 1 mg/kg, bleach 2 h after dose, drug vs. recovery control, read-out: Percent Inhibition at 2 Hours, Avg. % Inhibition): 70.2%
- inhibition at 3 mg/kg ([1]; Mus musculus, po, 2 h, BALB/c mice, single oral dose 3 mg/kg, bleach 2 h after dose, drug vs. recovery control, read-out: Percent Inhibition at 2 Hours, Avg. % Inhibition): 100%
- activity at 0.03 mg/kg ([1]; Mus musculus, BALB/c mice, single oral dose 0.03 mg/kg, bleach 2 h after dose, read-out: Percent control at 2 Hours (Avg. % Inhibition)): 105%
- activity at 0.1 mg/kg ([1]; Mus musculus, BALB/c mice, single oral dose 0.1 mg/kg, bleach 2 h after dose, read-out: Percent control at 2 Hours (Avg. % Inhibition)): 124%
- activity at 0.5 mg/kg ([1]; Mus musculus, BALB/c mice, single oral dose 0.5 mg/kg, bleach 2 h after dose, read-out: Percent control at 2 Hours (Avg. % Inhibition)): 58.6%
- activity at 1 mg/kg ([1]; Mus musculus, BALB/c mice, single oral dose 1 mg/kg, bleach 2 h after dose, read-out: Percent control at 2 Hours (Avg. % Inhibition)): 29.8%
- activity at 3 mg/kg ([1]; Mus musculus, BALB/c mice, single oral dose 3 mg/kg, bleach 2 h after dose, read-out: Percent control at 2 Hours (Avg. % Inhibition)): 0%
- dose showing nearly 100% inhibition ([1]; dose response experiment, 2 h): 3.0 mg/kg
- inhibition at 1 mg/kg [2]: 57%
- Percent Control, 0.3 mg/kg (average) ([3]; Time Point 2 Hours): 86.8%
- Percent Control, 0.3 mg/kg (average) ([3]; Time Point 4 Hours): 101.8%
- Percent Control, 0.3 mg/kg (average) ([3]; Time Point 6 Hours): 87.9%
- Percent Control, 0.3 mg/kg (average) ([3]; Time Point 8 Hours): 94.6%
- Percent Control, 0.3 mg/kg (average) ([3]; Time Point 16 Hours): 104.1%
- Percent Control, 0.3 mg/kg (average) ([3]; Time Point 24 Hours): 89.5%
- inhibition at 0.3 mg/kg ([3]; Time Point 2 Hours): 13.2%
- inhibition at 0.3 mg/kg ([3]; Time Point 4 Hours): -1.8%
- inhibition at 0.3 mg/kg ([3]; Time Point 6 Hours): 12.1%
- inhibition at 0.3 mg/kg ([3]; Time Point 8 Hours): 5.4%
- inhibition at 0.3 mg/kg ([3]; Time Point 16 Hours): -4.1%
- inhibition at 0.3 mg/kg ([3]; Time Point 24 Hours): 10.5%
